From patent US4088772A, “Methanodibenzocycloheptapyrroles” (E. I. Du Pont de Nemours and Company, priority 1975, dated 1978)
Like-named read-outs stand apart in the source and are kept apart here.

How the values were obtained:
[1] = in vivo; settings: mouse, in vivo, po
[2] = system: female white mice; test: animal or person; settings: Mus musculus, po, oral, mice
[3] = system: phenylquinone-induced writhing; test: Phenylquinone writhing test (analgesia); type: in vivo, mouse (Carworth CF1 S female); settings: Mus musculus
Description: This mouse test is predictive of analgesic response in humans. [E. Siegmund, R. Cadmus and G. Lee, Proc. Soc.
ED50 values were obtained graphically from the data.

[4] = read-out: Catatonia ED50, Table 1
[5] = read-out: Exploratory Loss Visual ED50, Table 1
[6] = read-out: Muscle Tone ED50, Table 1
[7] = read-out: Reflexes Grip ED50, Table 1
[8] = read-out: Reflexes Lift ED50, Table 1
[9] = read-out: Reflexes Pinna ED50, Table 1

| Compound | ED50 [1] [mg/kg] | LD50 at 24 h [1] [mg/kg] | ED50 [2, 4] [mg/kg] | ED50 [2, 5] [mg/kg] | ED50 [2, 6] [mg/kg] | ED50 ([2]; read-out: Ptosis ED50, Table 1) [mg/kg] | ED50 [2, 7] [mg/kg] | ED50 [2, 8] [mg/kg] | ED50 [2, 9] [mg/kg] | ED50 ([3]; po, Table 1, mice) [mg/kg] | ED50 ([1]; Tremors ED50, Table 1, mice) [mg/kg] | ED50 ([3]; Table 1, oral, mice) [mg/kg] |
| --- | --- | --- | --- | --- | --- | --- | --- | --- | --- | --- | --- | --- |
| C1=CCCC(CN2C[C@@H]3c4ccccc4[C@@H]4C[C@@]3(C2)c2ccccc24)CC1 (relative stereo) [Example 33, 2-(4-Cycloheptenylmethyl)-2,3,8,12b-tetrahydro-1H-3a,8-methanodibenzo[3,4:6,7]cyclohepta[1,2-c]pyrrole] | > 324 | > 324 | 11 | 9 | 7 | 4 | > 324 | 19 | 37 | 3.3 | – | – |
| C1=C[C@@H]2C[C@H]1C[C@@H]2CN1C[C@@H]2c3ccccc3[C@@H]3C[C@@]2(C1)c1ccccc13 (relative stereo) [Example 38, 2-(2-Endo-bicyclo[2.2.1]hept-5-enylmethyl)-2,3,8,12b-tetrahydro-1H-3a,8-methanodibenzo[3,4:6,7]cyclohepta[1,2-c]pyrrole] | > 324 | > 324 | 100 | 200 | 200 | 60 | > 324 | 200 | > 324 | 31 | – | – |
| CN1CC2c3ccccc3C3CC2(C1)c1ccccc13 (stereo not shown) [Example 1, 2-Methyl-2,3,8,12b-tetrahydro-1H-3a,8-methanodibenzo[3,4:6,7]cyclohepta[1,2-c]pyrrole] | – | 150 | 30 | 50 | 100 | 50 | 150 | 30 | 30 | – | 30 | 5.1 |
| c1ccc2c(c1)C1CC3(CN(CCCCC4CCCCC4)CC23)c2ccccc21 (stereo not shown) [Example 31, 2-(4-Cyclohexylbutyl)-2,3,8,12b-tetrahydro-1H-3a,8-methanodibenzo[3,4:6,7]cyclohepta[1,2-c]pyrrole] | > 324 | > 324 | 26 | 21 | 24 | 17 | > 324 | 37 | 32 | 14 | – | – |
| c1csc(CN2C[C@@H]3c4ccccc4[C@@H]4C[C@@]3(C2)c2ccccc24)c1 (relative stereo) [Example 54, 2-(2-Thienylmethyl)-2,3,8,12b-tetrahydro-1H-3a,8-methanodibenzo[3,4:6,7]cyclohepta[1,2-c]pyrrole] | > 324 | > 324 | 200 | 200 | 200 | 60 | > 324 | > 324 | 200 | 27 | – | – |
| CC1CCC(CN2C[C@@H]3c4ccccc4[C@@H]4C[C@@]3(C2)c2ccccc24)C1 (stereo partly shown) [Example 52, 2-(3-Methylcyclopentylmethyl)-2,3,8,12b-tetrahydro-1H-3a,8-methanodibenzo[3,4:6,7]cyclohepta[1,2-c]-pyrrole] | > 324 | > 324 | 12 | 12 | 12 | 7 | 200 | 12 | 7 | 5 | – | – |
| C=CCN1CC2c3ccccc3C3CC2(C1)c1ccccc13 (stereo not shown) [Example 10, 2-Allyl-2,3,8,12b-tetrahydro-1H-3a,8-methanodibenzo-[3,4:6,7]cyclohepta[1,2-c]pyrrole] | – | > 324 | 5 | 4.5 | 3.2 | < 3 | 150 | 6 | 4 | – | 187 | 1.9 |
